Literature values in patent publication US6607711B2, “Mouth hygienic composition for the treatment of halitosis” (priority 1997, dated 2003).

Conditions: amount in grams of the compound which can be dissolved per gram solvent (H2O)

[Cl-].[Cl-].[Zn+2] [Zinc chloride]
Solubility (g/g H2O): 4.3 g/g H2O
